O=C(O)CSc1ccc2ccccc2c1
solubility (mole fraction)
Conditions | 278.15 K | 283.15 K | 288.15 K | 293.15 K | 298.15 K | 303.15 K | 308.15 K | 313.15 K | 318.15 K | 323.15 K
in DMF | 0.00524 | 0.00586 | 0.0066 | 0.00738 | 0.00828 | 0.00917 | 0.0101 | 0.0112 | 0.0122 | 0.0135
in ethanol | 0.0014 | 0.0018 | 0.00234 | 0.00282 | 0.00336 | 0.00394 | 0.00456 | 0.0052 | 0.00584 | 0.00669
in isopropanol | 0.000227 | 0.0003 | 0.000383 | 0.000481 | 0.00058 | 0.000682 | 0.000801 | 0.000919 | 0.00105 | 0.0012
in methanol | 0.00053 | 0.000675 | 0.000828 | 0.00102 | 0.00119 | 0.0014 | 0.0016 | 0.0018 | 0.00204 | 0.00235
in water | 1.42e-06 | 1.95e-06 | 2.54e-06 | 3.16e-06 | 3.88e-06 | 4.53e-06 | 5.33e-06 | 6.1e-06 | 7e-06 | 8.05e-06
